Source: US20250026778A1 (TIUMBIO CO., LTD., priority 2021, published 2025)

molecular target: T1, his-galectin-3 (Homo sapiens, UniProt P17931); test: TR-FRET assay (in vitro galectin-3 binding inhibitory activity test); details: Table 2; compound at 20 μM; 60 nM his-galectin-3, 15 nM biotin-ASF; read-out: % Inhibitory activity (at 20 μM)
T1 construct: purchased Abcam
Procedure, shortened: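 Compound is premixed with his-galectin-3 (60 nM final), then biotin-ASF (15 nM), Tb anti-His antibody (2 nM) and streptavidin-d2 (20 nM) are added. After at least 3.5 hours at RT in HEPES/NaCl buffer with Tween 20 and BSA, TR-FRET is read at 615/665 nm. DMSO serves as the uninhibited control, ASF omission as background.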

T1 sequence (P17931 whole entry): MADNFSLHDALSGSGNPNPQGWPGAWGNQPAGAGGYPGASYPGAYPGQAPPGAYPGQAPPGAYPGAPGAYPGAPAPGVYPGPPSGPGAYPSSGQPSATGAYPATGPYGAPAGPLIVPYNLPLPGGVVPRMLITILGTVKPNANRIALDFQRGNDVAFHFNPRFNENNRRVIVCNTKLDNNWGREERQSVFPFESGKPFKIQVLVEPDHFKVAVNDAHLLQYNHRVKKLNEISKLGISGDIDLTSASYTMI

`O=C(N[C@@H]1CCO[C@]12O[C@H](CO)[C@H](O)[C@H](n1cc(-c3cc(F)c(F)c(F)c3)nn1)[C@H]2O)c1cccc(-c2cccc(Cl)c2)c1` [Compound A166, 3′-chloro-N-((4R,5S,7R,8R,9S,10R)-8,10-dihydroxy-7-(hydroxymethyl)-9-(4-(3,4,5-trifluorophenyl)-1H-1,2,3-triazol-1-yl)-1,6-dioxaspiro[4.5]decan-4-yl)-[1.1′-biphenyl]-3-carboxamide] and `O=C(N[C@@H]1CCO[C@]12O[C@H](CO)[C@H](O)[C@H](n1cc(-c3cc(F)c(F)c(F)c3)nn1)[C@H]2O)c1cccc(-c2ccccc2Br)c1` [Compound A179, 2′-bromo-N-((4R,5S,7R,8R,9S,10R)-8,10-dihydroxy-7-(hydroxymethyl)-9-(4-(3,4,5-trifluorophenyl)-1H-1,2,3-triazol-1-yl)-1,6-dioxaspiro[4.5]decan-4-yl)-[1,1′-biphenyl]-3-carboxamide] fall in the same range of inhibition at 20 µM: 50 to 75% for the first, 50 to 75% for the second.

`O=C(N[C@@H]1CCO[C@]12O[C@H](CO)[C@H](O)[C@H](n1cc(-c3cc(F)c(F)c(F)c3)nn1)[C@H]2O)c1cccc2c(Cl)cccc12` [Compound A169, 5-chloro-N-((4R,5S,7R,8R,9S,10R)-8,10-dihydroxy-7-(hydroxymethyl)-9-(4-(3,4,5-trifluorophenyl)-1H-1,2,3-triazol-1-yl)-1,6-dioxaspiro[4.5]decan-4-yl)-1-naphthamide] and `O=C(N[C@@H]1CCO[C@]12O[C@H](CO)[C@H](O)[C@H](n1cc(-c3cc(F)c(F)c(F)c3)nn1)[C@H]2O)c1ccc(Cl)c2ccccc12` [Compound A172, 4-chloro-N-((4R,5S,7R,8R,9S,10R)-8,10-dihydroxy-7-(hydroxymethyl)-9-(4-(3,4,5-trifluorophenyl)-1H-1,2,3-triazol-1-yl)-1,6-dioxaspiro[4.5]decan-4-yl)-1-naphthamide] cannot be ordered by inhibition at 20 µM: greater than 75% for the first, greater than 75% for the second.

`O=C(N[C@@H]1CCO[C@]12O[C@H](CO)[C@H](O)[C@H](n1cc(-c3cc(F)c(F)c(F)c3)nn1)[C@H]2O)c1ccc(F)c2ccccc12` [Compound A170, N-((4R,5S,7R,8R,9S,10R)-8,10-dihydroxy-7-(hydroxymethyl)-9-(4-(3,4,5-trifluorophenyl)-1H-1,2,3-triazol-1-yl)-1,6-dioxaspiro[4.5]decan-4-yl)-4-difluoro-1-naphthamide] and `O=C(N[C@@H]1CCO[C@]12O[C@H](CO)[C@H](O)[C@H](n1cc(-c3cc(F)c(F)c(F)c3)nn1)[C@H]2O)c1ccc(Br)c2ccccc12` [Compound A176, 4-bromo-N-((4R,5S,7R,8R,9S,10R)-8,10-dihydroxy-7-(hydroxymethyl)-9-(4-(3,4,5-trifluorophenyl)-1H-1,2,3-triazol-1-yl)-1,6-dioxaspiro[4.5]decan-4-yl)-1-naphthamide] cannot be ordered by inhibition at 20 µM: greater than 75% for the first, greater than 75% for the second.

First: O=C(N[C@@H]1CCO[C@]12O[C@H](CO)[C@H](O)[C@H](n1cc(-c3cc(F)c(F)c(F)c3)nn1)[C@H]2O)c1ccc2cc(Cl)ccc2c1 [Compound A173, 6-chloro-N-((4R,5S,7R,8R,9S,10R)-8,10-dihydroxy-7-(hydroxymethyl)-9-(4-(3,4,5-trifluorophenyl)-1H-1,2,3-triazol-1-yl)-1,6-dioxaspiro[4.5]decan-4-yl)-2-naphthamide]
Second: O=C(N[C@@H]1CCO[C@]12O[C@H](CO)[C@H](O)[C@H](n1cc(-c3cc(F)c(F)c(F)c3)nn1)[C@H]2O)c1csc2ccc(Cl)cc12 [Compound A177, 5-chloro-N-((4R,5S,7R,8R,9S,10R)-8,10-dihydroxy-7-(hydroxymethyl)-9-(4-(3,4,5-trifluorophenyl)-1H-1,2,3-triazol-1-yl)-1,6-dioxaspiro[4.5]decan-4-yl)benzo[b]thiophene-3-carboxamide]
The inhibition at 20 µM of the first is lower: 25 to 50% for the first, greater than 75% for the second.

`O=C(N[C@@H]1CCO[C@]12O[C@H](CO)[C@H](O)[C@H](n1cc(-c3cc(F)c(F)c(F)c3)nn1)[C@H]2O)c1cc(Br)cc2ccccc12` [Compound A178, 3-bromo-N-((4R,5S,7R,8R,9S,10R)-8,10-dihydroxy-7-(hydroxymethyl)-9-(4-(3,4,5-trifluorophenyl)-1H-1,2,3-triazol-1-yl)-1,6-dioxaspiro[4.5]decan-4-yl)-1-naphthamide] and `O=C(N[C@@H]1CCO[C@]12O[C@H](CO)[C@H](O)[C@H](n1cc(-c3cc(F)c(F)c(F)c3)nn1)[C@H]2O)c1coc2ccc(Br)cc12` [Compound A180, 5-bromo-N-((4R,5S,7R,8R,9S,10R)-8,10-dihydroxy-7-(hydroxymethyl)-9-(4-(3,4,5-trifluorophenyl)-1H-1,2,3-triazol-1-yl)-1,6-dioxaspiro[4.5]decan-4-yl)benzofuran-3-carboxamide] cannot be ordered by inhibition at 20 µM: greater than 75% for the first, greater than 75% for the second.

First: O=C(N[C@@H]1CCO[C@]12O[C@H](CO)[C@H](O)[C@H](n1cc(-c3cc(F)c(F)c(F)c3)nn1)[C@H]2O)c1sc2ccccc2c1Br [Compound A181, 3-bromo-N-((4R,5S,7R,8R,9S,10R)-8,10-dihydroxy-7-(hydroxymethyl)-9-(4-(3,4,5-trifluorophenyl)-1H-1,2,3-triazol-1-yl)-1,6-dioxaspiro[4.5]decan-4-yl)benzo[b]thiophene-2-carboxamide]
Second: O=C(N[C@@H]1CCO[C@]12O[C@H](CO)[C@H](O)[C@H](n1cc(-c3cc(F)c(F)c(F)c3)nn1)[C@H]2O)c1nsc2ccccc12 [Compound A182, N-((4R,5S,7R,8R,9S,10R)-8,10-dihydroxy-7-(hydroxymethyl)-9-(4-(3,4,5-trifluorophenyl)-1H-1,2,3-triazol-1-yl)-1,6-dioxaspiro[4.5]decan-4-yl)benzo[d]isothiazole-3-carboxamide]
The inhibition at 20 µM of the first is higher: greater than 75% for the first, 50 to 75% for the second.

`O=C(Cc1cccc(Oc2ccccc2)c1)N[C@@H]1CCO[C@]12O[C@H](CO)[C@H](O)[C@H](n1cc(-c3cc(F)c(F)c(F)c3)nn1)[C@H]2O` [Compound A183, N-((4R,5S,7R,8R,9S,10R)-8,10-dihydroxy-7-(hydroxymethyl)-9-(4-(3,4,5-trifluorophenyl)-1H-1,2,3-triazol-1-yl)-1,6-dioxaspiro[4.5]decan-4-yl)-2-(3-phenoxyphenyl)acetamide] and `O=C(c1cccc2ccccc12)N1CCC[C@]2(C1)O[C@H](CO)[C@H](O)[C@H](n1cc(-c3cc(F)c(F)c(F)c3)nn1)[C@H]2O` [Compound A185, ((2R,3R,4S,5R,6R)-3,5-dihydroxy-2-(hydroxymethyl)-4-(4-(3,4,5-trifluorophenyl)-1H-1,2,3-triazol-1-yl)-1-oxa-8-azaspiro[5.5]undecan-8-yl)(naphthalen-1-yl)methanone] cannot be ordered by inhibition at 20 µM: less than 25% for the first, less than 25% for the second.

same assay, conditions: Table 3, found values; compound at 20 μM; 60 nM his-galectin-3, 15 nM biotin-ASF; read-out: % Inhibitory activity (at 20 μM)

Point of comparison: `O=C(N[C@@H]1CCO[C@]12O[C@H](CO)[C@H](O)[C@H](n1cc(-c3cc(F)c(F)c(F)c3)nn1)[C@H]2O)c1ccc(F)c2ccccc12` [Compound A170, N-((4R,5S,7R,8R,9S,10R)-8,10-dihydroxy-7-(hydroxymethyl)-9-(4-(3,4,5-trifluorophenyl)-1H-1,2,3-triazol-1-yl)-1,6-dioxaspiro[4.5]decan-4-yl)-4-difluoro-1-naphthamide], inhibition at 20 µM 85.3%. Against it:
- O=C(N[C@@H]1CCO[C@]12O[C@H](CO)[C@H](O)[C@H](n1cc(-c3cc(F)c(F)c(F)c3)nn1)[C@H]2O)c1nsc2ccccc12 [Compound A182, N-((4R,5S,7R,8R,9S,10R)-8,10-dihydroxy-7-(hydroxymethyl)-9-(4-(3,4,5-trifluorophenyl)-1H-1,2,3-triazol-1-yl)-1,6-dioxaspiro[4.5]decan-4-yl)benzo[d]isothiazole-3-carboxamide] — lower, 73%

same assay, conditions: read-out: % Inhibitory activity (at 20 μM), Table 2; compound at 20 μM; 60 nM his-galectin-3, 15 nM biotin-ASF

Compared with `O=C(N[C@@H]1CCO[C@]12O[C@H](CO)[C@H](O)[C@H](n1cc(-c3cc(F)c(F)c(F)c3)nn1)[C@H]2O)c1ccccc1Oc1ccccc1` [Compound A171, N-((4R,5S,7R,8R,9S,10R)-8,10-dihydroxy-7-(hydroxymethyl)-9-(4-(3,4,5-trifluorophenyl)-1H-1,2,3-triazol-1-yl)-1,6-dioxaspiro[4.5]decan-4-yl)-2-phenoxybenzamide], `O=C(Cc1ccccc1)N1CCC[C@]2(C1)O[C@H](CO)[C@H](O)[C@H](n1cc(-c3cc(F)c(F)c(F)c3)nn1)[C@H]2O` [Compound A184, 1-((2R,3R,4S,5R,6R)-3,5-dihydroxy-2-(hydroxymethyl)-4-(4-(3,4,5-trifluorophenyl)-1H-1,2,3-triazol-1-yl)-1-oxa-8-azaspiro[5.5]undecan-8-yl)-2-phenylethanone] is lower in inhibition at 20 µM: 25 to 50% for the first, less than 25% for the second.
